Assay results published in patent publication US20110269811A1, “INHIBITORS OF SEMICARBAZIDE-SENSITIVE AMINE OXIDASE (SSAO) AND VAP-1 MEDIATED ADHESION USEFUL FOR TREATMENT AND PREVENTION OF DISEASES” (priority 2006, published 2011).
Each block holds one molecule with its values, some of them ahead of it.

Assays:
[1] = tested on: carrageenan-induced paw edema; assay: Carrageenan-induced rat paw edema; type: in vivo, Sprague Dawley rats; details: for paw swelling: 50 mg/kg orally 60 min prior to carrageenan
Description: Carrageenan-induced paw edema has been extensively used in the evaluation of anti-inflammatory effects of various therapeutic agents and is a useful experimental system for assessing the efficacy of compounds to alleviate acute inflammation (Whiteley P E and Dalrymple S A, 1998. Models of inflammation: carrageenan-induced paw edema in the rat, in Current Protocols in Pharmacology. Enna S J, Williams M, Ferkany J W, Kenaki T, Porsolt R E and Sullivan J P, eds., pp 5.4.1-5.4.3, John Wiley & Sons, New York). The full development of the edema is neutrophil-dependent (Salvemini D. et al. (1996) Br. J. Pharmacol. 118: 829).
Female Sprague Dawley rats were used in groups of 8-12 and compounds of the invention were administered orally at up to 50 mg/kg 60 min prior to carrageenan exposure. The control group was administered orally an equal volume of vehicle (PBS). Edema in the paws was induced as previously described by injecting 50 μL of a 0.5% solution of carrageenan (Type IV Lambda, Sigma) in saline with a 27-G needle s.c. in the right foot pad. (See Whiteley P. E. and Dalrymple S. A. (1998), Models of inflammation: carrageenan-induced paw edema in the rat, in Current Protocols in Pharmacology, Enna S J, Williams M, Ferkany J W, Kenaki T, Porsolt R E and Sullivan J P, eds., pp 5.4.1-5.4.3, John Wiley & Sons, New York) The size of the tested foot of each animal was measured volumetrically with a plethysmometer immediately after injection of carrageenan solution and at various times up to 360 min after carrageenan induction.
Results of experiments with the compounds II-1-E, I-1-Z, and I-2-Z are shown in FIG. 1, FIG. 5, and FIG. 6, respectively.
Using the same procedure discussed above, the size of the foot of each animal was measured volumetrically before induction of edema, and at 1.5, 3, 4.5 and 6 h after the carrageenan injection. The absolute decreases in paw swelling at 6 h with 1, 10 and 50 mg/kg were 5±11%, 20±9% and 32±6% respectively. Statistical analyses were performed with repeated measures ANOVA followed by Dunnett's test for multiple comparisons.
Paw edema was induced in groups of eight Sprague Dawley rats by injecting 50 μL of a 0.375% solution of carrageenan X in saline, subcutaneously in the foot. After one hour animals were orally dosed once with PBS, compound I-1-Z at 50 mg/kg or with indomethacin at 3 mg/kg. The size of the paws were measured before induction of edema (baseline), and at 1.5, 3, 4.5 and 6 h after carrageenan injection. […] Statistical analyses were performed with repeated measures ANOVA followed by Dunnett's test for multiple comparisons.
Groups of eight Sprague Dawley rats were orally administered PBS, or 0.01, 0.1 or 1 mg/kg of compound I-1-Z. One hour later paw edema was induced in all animals by injecting 50 μL of a 0.5% solution of carrageenan X in saline, subcutaneously into the footpad. The size of the foot of each animal was measured volumetrically before induction of edema, and at 1.5, 3, 4.5 and 6 h after the carrageenan injection. The absolute decreases in paw swelling at 6 h with 0.1 and 1 mg/kg were 34±8 and 29±8% respectively. Statistical analyses were performed with repeated measures ANOVA followed by Dunnett's test for multiple comparisons.

human MAO-B = target: T1, human MAO-B (Homo sapiens, UniProt P27338); assay: MAO-B activity, colorimetric method, benzylamine substrate; type: biochemical; details: for Specificity of SSAO on MAO-B: ratio of IC50 for MAO-B to IC50 for SSAO; for IC50: recombinant human MAO-B
T1 construct: purchased BD Biosciences (MA, USA)
T1 sequence (P27338 1-520): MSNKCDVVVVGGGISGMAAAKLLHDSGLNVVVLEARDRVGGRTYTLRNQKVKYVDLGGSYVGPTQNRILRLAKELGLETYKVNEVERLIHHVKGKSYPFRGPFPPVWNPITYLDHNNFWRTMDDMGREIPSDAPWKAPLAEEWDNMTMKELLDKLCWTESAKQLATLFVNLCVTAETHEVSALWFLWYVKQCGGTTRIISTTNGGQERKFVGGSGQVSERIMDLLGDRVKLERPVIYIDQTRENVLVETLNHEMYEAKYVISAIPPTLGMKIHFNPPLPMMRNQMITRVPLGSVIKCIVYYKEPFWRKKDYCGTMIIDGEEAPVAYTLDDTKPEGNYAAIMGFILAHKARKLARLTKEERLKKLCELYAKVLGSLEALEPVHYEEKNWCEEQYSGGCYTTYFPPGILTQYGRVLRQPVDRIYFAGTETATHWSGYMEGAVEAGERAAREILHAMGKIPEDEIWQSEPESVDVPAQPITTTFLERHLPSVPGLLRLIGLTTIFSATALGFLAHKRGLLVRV
Procedure: The specificities of the different SSAO inhibitors was tested by determining their abilities to inhibit MAO-A and MAO-B activities in vitro. Recombinant human MAO-A and human MAO-B enzymes were obtained from BD Biosciences (MA, USA). MAO activity was measured using the colorimetric method essentially as described (Holt, A. et al. (1997) Anal. Biochem. 244: 384). A pre-determined amount of inhibitor diluted in 0.2M potassium phosphate buffer, pH 7.6, was added to each well, if required. […] Controls lacked inhibitor. The following agents were then added to a final reaction volume of 200 μL in 0.2M potassium phosphate buffer, pH 7.6: 0.04 mg/ml of MAO-A or 0.07 mg/ml MAO-B enzyme, 15 μL of 10 mM tyramine substrate (for MAO-A), or 15 μL 100 mM benzylamine substrate (for MAO-B), and 50 μL of freshly made chromogenic solution. The chromogenic solution contained 750 μM vanillic acid (Sigma#V-2250), 400 μM 4-aminoantipyrine (Sigma #A-4328) and 12 U/mL horseradish peroxidase (Sigma #P-8250) in order to cause a change of 0.5 OD A490 nm/h. […] The plates were incubated for 60 min at 37° C. The increase in absorbance, reflecting MAO activity, was measured at 490 nm using microplate spectrophotometer (Power Wave 40, Bio-Tek Inst.). Inhibition was presented as percent inhibition compared to control after correcting for background absorbance and IC50 values calculated using GraphPad Prism software. Clorgyline and pargyline (inhibitors of MAO-A and -B, respectively) at 1 μM, were added to some wells as positive controls for MAO inhibition.

Structure (SMILES): COc1ccc(C/C(=C/F)CN)cc1.Cl [Compound I-1-Z, (Z)-3-Fluoro-2-(4-methoxybenzyl)-allylamine hydrochloride]
absolute decrease in paw swelling at 6 h ([1]; 0.1 mg/kg orally one hour before carrageenan, low doses, FIG. 13): 34±8%
absolute decrease in paw swelling at 6 h ([1]; 1 mg/kg orally one hour before carrageenan, low doses, FIG. 13): 29±8%
absolute decrease in paw swelling at 6 h ([1]; 1 mg/kg, dose response, FIG. 7): 5±11%
absolute decrease in paw swelling at 6 h ([1]; 10 mg/kg, dose response, FIG. 7): 20±9%
paw swelling ([1]; between 2-6 h): clearly reduced the paw swelling
absolute decrease in paw swelling at 6 h ([1]; 50 mg/kg, dose response, FIG. 7): 32±6%
inhibition of paw edema at 6 h ([1]; therapeutic dosing: 50 mg/kg orally one hour after 0.375% carrageenan, FIG. 8): 50±4%
Specificity of SSAO on MAO-B (human MAO-B): 88
IC50 (human MAO-B): 1.6 µM

Specificity of SSAO on MAO-B (human MAO-B): 1200
IC50 (human MAO-B): 12 µM
melting point: 153 to 154 °C
Structure (SMILES): CCOc1ccc(C/C(=C/F)CN)cc1.Cl [Compound I-2-Z, (Z)-3-Fluoro-2-(4-ethoxybenzyl)-allylamine hydrochloride]
paw swelling ([1]; between 3-6 h): clearly reduced the paw swelling

Structure (SMILES): NC/C(F)=C\Cc1cc(F)cc(C(F)(F)F)c1 [II-1-E, (E)-2-Fluoro-4-(3-fluoro-5-trifluoromethylphenyl)-but-2-enylamine]
paw swelling ([1]; between 2-6 h): clearly reduced the paw swelling
Specificity of SSAO on MAO-B (human MAO-B): >2400
IC50 (human MAO-B): > 87 µM
